# System: urease produced by Arthrobacter mobilis SAM0752 (FERM BP-2127)
# Assay: Km value for urea of the purified urease
# Type: biochemical
# Conditions: 0.1M acetic acid buffer (pH 4.5), 37° C.
# Protocol: The activity was determined by measuring the amount of ammonia produced by decomposition of urea during the enzyme reaction per unit of time. In particular, 0.025 ml of an enzyme solution was added to a reaction solution containing 0.2 ml of a 0.1M acetic acid buffer (pH 4.5) and 0.025 ml of a 0.1M urea solution, followed by incubation at 37° C. for a given time (10 to 20 minutes). The reaction was terminated by adding 0.025 ml of a 33% trichloroacetic acid solution. […] of the reaction solution was added to 1 ml of a coloring solution which had been prepared by mixing 10 ml of a 0.3M phosphate buffer (pH 7.5), 0.56 ml of 25 mg/ml o-phthalaldehyde in ethanol, and 0.56 ml of 5 mg/ml 2-mercaptoethanol in ethanol. After allowing the thus-obtained mixture to stand for 45 minutes at room temperature, the increase in absorbance at a wavelength of 410 nm was measured. The enzyme activity was then calculated from a calibration curve which was formed using predetermined amounts of ammonium chloride as a reference substance. This method was based on the method by Heini et al. [Eur. J. Biochem., 162, 541 (1987)]. The activity unit of the enzyme was defined as the amount of ammonia produced in terms of μ mol/min.
smiles,measurement,setting,value
NC(N)=O [urea],Km,20% ethanol added,~3.7 mM
same,Km,no ethanol added,~3.6 mM

# Reference: US5006468A, “Novel urease and method of producing the same” (Suntory Limited, priority 1987, dated 1991)
